Test system: HSPC-pDCs
Assay: RNA-sequencing of HSPC-pDCs generated with or without ascorbic acid
Format: cell-based, human
Conditions: for Log2 (+AA/−AA) / +AA FPKM: Table 2
Protocol: HSPCs were thawed and 1×10^5 cells were seeded in DC medium with or without supplementation of ascorbic acid (AA). Following 16 days of differentiation with or without AA in the medium, pDCs were isolated by immunomagnetic depletion of non-pDCs, and HSPCs-pDCs were then primed for 72 hours with IFN-β/γ. Following priming, HSPC-pDCs were stored in RNAprotect Cell Reagent (Qiagen) at −80° C. until total RNA was extracted using the RNeasy Plus Micro Kit (Qiagen), which efficiently eliminates genomic DNA without the need for DNase treatment. The total RNA was send to BGI Europe for RNA-seq. Here, a non-stranded & polyA-selected mRNA library was prepared from the total RNA and subjected to PE100 sequencing using the BGISEQ platform. The samples generated on average about 4.84 Gb bases per sample. Low quality reads were filtered and the remaining reads were mapped to the genome with an average mapping ratio with the reference genome at 92.74%, the average gene mapping ratio at 79.90%. In total, 18,412 genes were identified. Gene expression was calculated based on the reads, differentially expressed genes and gene ontology analyses were analyzed on BGI's software analysis platform Dr. Tom. HSPCs were thawed and 1×10^5 cells were seeded in DC medium with or without supplementation of ascorbic acid (AA). Following 16 days of differentiation with or without AA in the medium, pDCs were isolated by immunomagnetic depletion of non-pDCs, and HSPCs-pDCs were then primed for 72 hours with IFN-β/γ. Following priming, HSPC-pDCs were stored in RNAprotect Cell Reagent (Qiagen) at −80 degrees until total RNA was extracted using the RNeasy Plus Micro Kit (Qiagen), which efficiently eliminates genomic DNA without the need for DNase treatment. The total RNA was send to BGI Europe for RNA-seq. Here, a non-stranded & polyA-selected mRNA library was prepared from the total RNA and subjected to PE100 sequencing using the BGISEQ platform. The samples generated on average about 4.84 Gb bases per sample. Low quality reads were filtered and the remaining reads were mapped to the genome with an average mapping ratio with the reference genome at 92.74%, the average gene mapping ratio at 79.90%. In total, 18,412 genes were identified. Gene expression was calculated based on the reads, differentially expressed genes and gene ontology analyses were analyzed on BGI's software analysis platform Dr. Tom.

For `O=C1O[C@H]([C@@H](O)CO)C(O)=C1O` [ascorbic acid], the “Log2 (+AA/−AA)” value (gene ACP5, Qvalue 4.83E−10) was 2.221, the “+AA FPKM” value (gene ACP5, −AA FPKM 31.073) was 146.980 FPKM and the “Log2 (+AA/−AA)” value (gene ADAMDEC1, Qvalue 0.0010135) was 3.569. The “+AA FPKM” value (gene ADAMDEC1, −AA FPKM 1.127) was 13.453 FPKM, the “Log2 (+AA/−AA)” value (gene ASS1, Qvalue 2.41E−08) was 5.358 and the “+AA FPKM” value (gene ASS1, −AA FPKM 0.477) was 19.263 FPKM. For the same molecule, the “Log2 (+AA/−AA)” value (gene ATF5, Qvalue 2.01E−54) was 2.398, the “+AA FPKM” value (gene ATF5, −AA FPKM 24.183) was 129.867 FPKM and the “Log2 (+AA/−AA)” value (gene AXL, Qvalue 9.98E−29) was 4.406. The “+AA FPKM” value (gene AXL, −AA FPKM 1.033) was 21.903 FPKM, the “Log2 (+AA/−AA)” value (gene C3, Qvalue 0.001547846) was 3.579 and the “+AA FPKM” value (gene C3, −AA FPKM 1.227) was 14.750 FPKM. For the same molecule, the “Log2 (+AA/−AA)” value (gene CCL2, Qvalue 5.74E−06) was 4.646, the “+AA FPKM” value (gene CCL2, −AA FPKM 7.183) was 179.503 FPKM and the “Log2 (+AA/−AA)” value (gene CCL13, Qvalue 8.06E−14) was 6.195. The “+AA FPKM” value (gene CCL13, −AA FPKM 0.197) was 14.483 FPKM, the “Log2 (+AA/−AA)” value (gene CD14, Qvalue 2.98E−25) was 4.038 and the “+AA FPKM” value (gene CD14, −AA FPKM 2.797) was 46.303 FPKM. For the same molecule, the “Log2 (+AA/−AA)” value (gene CD209, Qvalue 9.84E−27) was 2.774, the “+AA FPKM” value (gene CD209, −AA FPKM 2.460) was 16.407 FPKM and the “Log2 (+AA/−AA)” value (gene CES1, Qvalue 0.03002647) was 3.002. For the same molecule, the “+AA FPKM” value (gene CES1, −AA FPKM 6.620) was 52.940 FPKM, the “Log2 (+AA/−AA)” value (gene CFB, Qvalue 2.09E−06) was 3.059 and the “+AA FPKM” value (gene CFB, −AA FPKM 1.257) was 10.533 FPKM. For the same molecule, the “Log2 (+AA/−AA)” value (gene CHI3L1, Qvalue 0.024834793) was 2.178, the “+AA FPKM” value (gene CHI3L1, −AA FPKM 108.107) was 495.927 FPKM and the “Log2 (+AA/−AA)” value (gene CTSL, Qvalue 0.031636618) was 2.759. The “+AA FPKM” value (gene CTSL, −AA FPKM 3.140) was 21.410 FPKM, the “Log2 (+AA/−AA)” value (gene CXCL10, Qvalue 1.78E−06) was 2.352 and the “+AA FPKM” value (gene CXCL10, −AA FPKM 36.100) was 183.493 FPKM. For the same molecule, the “Log2 (+AA/−AA)” value (gene DEFA1, Qvalue 6.38E−05) was 5.728, the “+AA FPKM” value (gene DEFA1, −AA FPKM 19.907) was 1047.070 FPKM and the “Log2 (+AA/−AA)” value (gene DEFA3, Qvalue 0.001704486) was 4.431. For the same molecule, the “+AA FPKM” value (gene DEFA3, −AA FPKM 27.457) was 593.480 FPKM, the “Log2 (+AA/−AA)” value (gene DEFA4, Qvalue 1.65E−08) was 4.651 and the “+AA FPKM” value (gene DEFA4, −AA FPKM 39.303) was 975.213 FPKM. The “Log2 (+AA/−AA)” value (gene DNASE1L3, Qvalue 5.63E−10) was 2.459, the “+AA FPKM” value (gene DNASE1L3, −AA FPKM 1.893) was 10.470 FPKM and the “Log2 (+AA/−AA)” value (gene FPR3, Qvalue 3.93E−08) was 2.200. The “+AA FPKM” value (gene FPR3, −AA FPKM 10.853) was 50.280 FPKM, the “Log2 (+AA/−AA)” value (gene GIMAP4, Qvalue 3.03E−09) was 2.409 and the “+AA FPKM” value (gene GIMAP4, −AA FPKM 3.960) was 20.933 FPKM. For the same molecule, the “Log2 (+AA/−AA)” value (gene GPNMB, Qvalue 4.79E−08) was 4.418, the “+AA FPKM” value (gene GPNMB, −AA FPKM 4.760) was 101.280 FPKM and the “Log2 (+AA/−AA)” value (gene GZMB, Qvalue 3.57E−07) was 3.081. The “+AA FPKM” value (gene GZMB, −AA FPKM 3.773) was 31.393 FPKM, the “Log2 (+AA/−AA)” value (gene HSD11B1, Qvalue 0.044667374) was 3.736 and the “+AA FPKM” value (gene HSD11B1, −AA FPKM 1.240) was 16.590 FPKM. The “Log2 (+AA/−AA)” value (gene IFI27, Qvalue 3.56E−04) was 4.638, the “+AA FPKM” value (gene IFI27, −AA FPKM 14.857) was 376.697 FPKM and the “Log2 (+AA/−AA)” value (gene IFI44L, Qvalue 1.82E−05) was 2.109. For the same molecule, the “+AA FPKM” value (gene IFI44L, −AA FPKM 17.913) was 81.280 FPKM, the “Log2 (+AA/−AA)” value (gene IL4I1, Qvalue 5.63E−07) was 2.589 and the “+AA FPKM” value (gene IL4I1, −AA FPKM 4.657) was 28.410 FPKM. The “Log2 (+AA/−AA)” value (gene IL32, Qvalue 2.92E−23) was 2.353, the “+AA FPKM” value (gene IL32, −AA FPKM 5.960) was 30.560 FPKM and the “Log2 (+AA/−AA)” value (gene KYNU, Qvalue 2.56E−05) was 2.148. For the same molecule, the “+AA FPKM” value (gene KYNU, −AA FPKM 6.050) was 26.750 FPKM, the “Log2 (+AA/−AA)” value (gene LAG3, Qvalue 8.08E−20) was 3.418 and the “+AA FPKM” value (gene LAG3, −AA FPKM 2.770) was 29.953 FPKM. The “Log2 (+AA/−AA)” value (gene LCN2, Qvalue 1.39E−54) was 5.282, the “+AA FPKM” value (gene LCN2, −AA FPKM 0.930) was 35.670 FPKM and the “Log2 (+AA/−AA)” value (gene LILRB4, Qvalue 3.21E−22) was 3.922. For the same molecule, the “+AA FPKM” value (gene LILRB4, −AA FPKM 1.363) was 19.833 FPKM, the “Log2 (+AA/−AA)” value (gene MAFB, Qvalue 0.00100367) was 3.471 and the “+AA FPKM” value (gene MAFB, −AA FPKM 1.023) was 11.443 FPKM. For the same molecule, the “Log2 (+AA/−AA)” value (gene MMP14, Qvalue 1.27E−18) was 4.564, the “+AA FPKM” value (gene MMP14, −AA FPKM 1.470) was 34.870 FPKM and the “Log2 (+AA/−AA)” value (gene MPEG1, Qvalue 3.81E−23) was 2.325. For the same molecule, the “+AA FPKM” value (gene MPEG1, −AA FPKM 22.783) was 112.763 FPKM, the “Log2 (+AA/−AA)” value (gene MX1, Qvalue 0.026353098) was 2.341 and the “+AA FPKM” value (gene MX1, −AA FPKM 41.507) was 211.673 FPKM. For the same molecule, the “Log2 (+AA/−AA)” value (gene MYL9, Qvalue 9.98E−29) was 4.530, the “+AA FPKM” value (gene MYL9, −AA FPKM 0.550) was 12.580 FPKM and the “Log2 (+AA/−AA)” value (gene NUPR1, Qvalue 8.23E−04) was 3.257. For the same molecule, the “+AA FPKM” value (gene NUPR1, −AA FPKM 1.457) was 14.303 FPKM, the “Log2 (+AA/−AA)” value (gene OLR1, Qvalue 0.030792442) was 2.719 and the “+AA FPKM” value (gene OLR1, −AA FPKM 1.523) was 10.067 FPKM. For the same molecule, the “Log2 (+AA/−AA)” value (gene ORM1, Qvalue 1.09E−20) was 4.863, the “+AA FPKM” value (gene ORM1, −AA FPKM 3.003) was 88.200 FPKM and the “Log2 (+AA/−AA)” value (gene P2RY11, Qvalue 3.25E−10) was 3.498. The “+AA FPKM” value (gene P2RY11, −AA FPKM 0.970) was 10.823 FPKM, the “Log2 (+AA/−AA)” value (gene PLA2G7, Qvalue 0.030445407) was 2.759 and the “+AA FPKM” value (gene PLA2G7, −AA FPKM 12.103) was 86.573 FPKM. The “Log2 (+AA/−AA)” value (gene SIGLEC1, Qvalue 0.003740839) was 2.998, the “+AA FPKM” value (gene SIGLEC1, −AA FPKM 3.223) was 26.273 FPKM and the “Log2 (+AA/−AA)” value (gene SLC7A7, Qvalue 6.15E−21) was 2.460. The “+AA FPKM” value (gene SLC7A7, −AA FPKM 9.010) was 49.703 FPKM, the “Log2 (+AA/−AA)” value (gene SLC15A3, Qvalue 4.84E−06) was 2.417 and the “+AA FPKM” value (gene SLC15A3, −AA FPKM 9.753) was 52.340 FPKM. The “Log2 (+AA/−AA)” value (gene SPON2, Qvalue 6.39E−10) was 2.497, the “+AA FPKM” value (gene SPON2, −AA FPKM 4.037) was 22.397 FPKM and the “Log2 (+AA/−AA)” value (gene ST14, Qvalue 1.06E−29) was 2.575. The “+AA FPKM” value (gene ST14, −AA FPKM 1.920) was 11.390 FPKM, the “Log2 (+AA/−AA)” value (gene TLR7, Qvalue 1.13E−20) was 2.326 and the “+AA FPKM” value (gene TLR7, −AA FPKM 2.483) was 12.300 FPKM. For the same molecule, the “Log2 (+AA/−AA)” value (gene USP18, Qvalue 0.029120385) was 3.335, the “+AA FPKM” value (gene USP18, −AA FPKM 2.210) was 22.600 FPKM and the “Log2 (+AA/−AA)” value (gene XCR1, Qvalue 2.80E−29) was 2.881. The “+AA FPKM” value (gene XCR1, −AA FPKM 1.363) was 10.463 FPKM and the “log2 (+AA/−AA)” value (Table 3, gene FCER1G, Qvalue 0.03) was 0.509.
